Measured values: article PMC8956739, “A synthetic lipopeptide targeting top-priority multidrug-resistant Gram-negative pathogens” (Nature Communications, 2022)
Converted amounts (≈) assume the structure as drawn. “And” between values parts separate entries of the source, which are not always exact repeats. Equal entries are not always repeated. Where two headings read alike, the source gives them in different places. Residues, ends and D or L forms follow the SMILES beside them.

How the values were obtained:
Swiss mice = experiment: Acute toxicity in mice (maximum tolerated dose, IV bolus); assay type: in vivo, mouse; conditions: replicates 1-4
Experimental: Lipopeptide solutions were prepared in 0.9% saline and stored at 4 °C before use. Swiss mice (female, 7-week-old, 22–28 g) were used in the study. A mouse was administered an intravenous bolus of the lipopeptide (mg/kg free base) through a lateral tail vein (≤0.1 mL). After the injection, the mouse was released back into the cage and monitored for clinical signs of toxicity from 0 to 24 h after injection as follows: every 10 min in the first 2 h, every half hour from 2 to 4 h, every hour from 4 to 12 h, and every 2 h from 12 to 24 h.

[1] = system: MDR clinical isolates of Enterobacterales (n = 177, 152 carbapenem-resistant); experiment: Extended MIC screening, MDR clinical isolates; assay type: cell-based
Experimental: MICs were determined in cation-adjusted Mueller–Hinton broth (CaMHB) by the broth micro-dilution method against ATCC strains and clinical isolates. MICs in the presence of Survanta® were determined as described above against P. aeruginosa ATCC 27853. In the 100 μL of fresh CaMHB containing polymyxins, 10% Survanta® (v/v, 2.5 mg/mL phospholipids) was added. MICs in the presence and absence of Survanta® were compared to determine the effect of binding to lung surfactant on the antibacterial activity of polymyxins.

[2] = system: MDR clinical isolates of P. aeruginosa (n = 213, 55 carbapenem-resistant); assay type: cell-based, Pseudomonas aeruginosa
In short: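 Each strain is tested in cation-adjusted Mueller–Hinton broth using the micro-dilution technique, and growth inhibition gives the MIC.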

P. aeruginosa ATCC 27853 = assay type: cell-based, Pseudomonas aeruginosa
In short: (§1)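 MICs came from broth microdilution in cation-adjusted Mueller–Hinton broth against clinical isolates. For surfactant binding, P. aeruginosa ATCC 27853 was additionally tested with 10% Survanta® (v/v, 2.5 mg/mL phospholipids) added to the polymyxin-containing broth.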

[3] = system: P. aeruginosa FADDI-PA025; assay type: cell-based, Pseudomonas aeruginosa
In short: as §1

[4] = system: P. aeruginosa FADDI-PA038; assay type: cell-based, Pseudomonas aeruginosa; conditions: carbapenem-resistant isolate
In short: as §1

[5] = system: K. pneumoniae FADDI-KP032; assay type: cell-based, Klebsiella pneumoniae; conditions: carbapenem-resistant isolate
In short: as §1

[6] = system: K. pneumoniae FADDI-KP065; assay type: cell-based, Klebsiella pneumoniae; conditions: carbapenem-resistant isolate
In short: as §1

HK-2 cells = experiment: Transcriptomic analysis (RNA-Seq) of kidney cells; assay type: cell-based, human; conditions: for logFC, differential gene expression for all genes / log2FC / Fold Change: HK-2 RNA-Seq; for log2FC: Fig. 5f; for num.of.degs: number of differentially expressed genes per peptide, Fig. 6a; for Fold Change: Fig. 5e
Experimental: Human Kidney-2 (HK-2) cells (CRL-2190™, American Type Culture Collection) were treated with 100 μM colistin, F287, F319, and F365 for 24 h. Previous transcriptomic data of HK-2 cells following 24 h treatment with polymyxin B[26] were also employed for comparative bioinformatic analysis. RNA extraction was conducted as described above. Raw reads were aligned to genome GRCh38.94 (Ensembl genome database, http://ftp.ensembl.org/pub/release-94/fasta/homo_sapiens/dna/) using […] and summarized by featureCounts. Differentially expressed genes were determined using limma 3.46.0, with a combination of fold change ≥ 1.5 and FDR (by Benjamini–Hochberg algorithm) adjusted P-value ≤ 0.05 (n = 3). Key regulatory genes of HK-2 were analyzed in the context of signaling network in the Signor 2.0 database. Enrichment analysis of gene differential expression in HK-2 cells was conducted using enrichR 2.1. UpSetR 1.4.0, ComplexHeatmap 2.6.2, circlize 0.4.13 and iGraph 1.2.11 were used for data visualization. Raw data were deposited in the Short Reads Archive database under accession numbers SRR15239061-SRR15239078.

in vitro = assay type: cell-based, human; conditions: human, wild-type HK-2 cells (kidney proximal tubular), Cell viability, WT
Experimental: (§2) Fig. 6 Transcriptomic changes in human kidney proximal tubular HK-2 cells following treatments with polymyxin B (PMB), colistin (COL), F287, F319, and F365. a Numbers of differentially expressed genes. Distinctive intersections are color-coded. b Cell viability difference (two-tailed Student’s t-test, n = 4 biologically independent cells, Benjamini–Hochberg adjusted P-values) between wild-type HK-2 and KCNJ16 knockout (KO) cells following 24 h treatment with lipopeptides. n.s., not significant; ^*adjusted P < 0.05, ^**adjusted P < 0.01, ^***adjusted P < 0.001. Data are shown as mean ± s.d. and individual data points. c Extracted transcriptional regulatory network from Signor database with 1-step neighbor constraints (enlarged for detail). Source data are provided as a Source Data file.

wild-type HK-2 cells = experiment: in vitro; assay type: cell-based, human
Experimental: as §2

[7] = MDR clinical isolates of (n = 213, 55 carbapenem-resistant)
[8] = isolates with MIC 0.05 μg/mL (so in the source)
[9] = isolates with MIC 0.125 μg/mL (so in the source)
[10] = isolates with MIC 0.25 μg/mL (so in the source)
[11] = isolates with MIC 0.5 μg/mL (so in the source)
[12] = isolates with MIC 1 μg/mL (so in the source)
[13] = isolates with MIC 2 μg/mL (so in the source)
[14] = isolates with MIC 4 μg/mL (so in the source)
[15] = isolates with MIC 8 μg/mL (so in the source)
[16] = isolates with MIC 16 μg/mL (so in the source)
[17] = isolates with MIC 32 μg/mL (so in the source)
[18] = isolates with MIC 64 μg/mL (so in the source)
[19] = isolates with MIC >64 μg/mL (so in the source)
[20] = human, wild-type HK-2 cells (kidney proximal tubular), 24 h

CC[C@@H]1NC(=O)[C@@H](CC(C)C)NC(=O)[C@H](CCN)NC(=O)[C@@H](NC(=O)[C@H](CN)NC(=O)[C@@H](NC(=O)[C@H](CCN)NC(=O)c2ccc(Cl)cc2Cl)[C@@H](C)O)CCNC(=O)[C@H]([C@@H](C)O)NC(=O)[C@H](CCN)NC(=O)[C@H](CCN)NC1=O [Lipopeptide F365] (HELM PEPTIDE1{[O=C(c1ccc(Cl)cc1Cl)[*:2]].[Dab].T.[NC[C@H](N[*:1])C(=O)[*:2]].[Dab].[Dab].[dL].[Abu].[Dab].[Dab].T}$PEPTIDE1,PEPTIDE1,5:R3-11:R2$$$V2.0)
MTD, single replicate (Swiss mice): 10.1 mg/kg | Number of isolates ([1]; isolates with MIC 0.05 µg/mL): 0 | Number of isolates ([1]; isolates with MIC 0.125 µg/mL): 9 | Number of isolates ([1]; isolates with MIC 0.25 µg/mL): 68 | Number of isolates ([1]; isolates with MIC 0.5 µg/mL): 72 | Number of isolates ([1]; isolates with MIC 1 µg/mL): 5 | Number of isolates ([1]; isolates with MIC 2 µg/mL): 1 | Number of isolates ([1]; isolates with MIC 4 µg/mL): 2 | Number of isolates ([1]; isolates with MIC 8 µg/mL): 0 | Number of isolates ([1]; isolates with MIC 16 µg/mL): 5 | Number of isolates ([1]; isolates with MIC 32 µg/mL): 2 | Number of isolates ([1]; isolates with MIC 64 µg/mL): 4 | Number of isolates ([1]; isolates with MIC >64 µg/mL): 6 | MIC50 [2, 7]: 0.5 µg/mL (≈ 0.431 µM) | MIC90 [2, 7]: 1 µg/mL (≈ 0.862 µM) | potency relative to polymyxin B ([2]; MIC50/MIC90, P. aeruginosa panel): 2 fold | Number of isolates [2, 8]: 1 | Number of isolates [2, 9]: 6 | Number of isolates [2, 10]: 28 | Number of isolates [2, 11]: 159 | Number of isolates [2, 12]: 13 | Number of isolates [2, 13]: 1 | Number of isolates [2, 14]: 2 | Number of isolates [2, 15]: 0 | Number of isolates [2, 16]: 1 | Number of isolates [2, 17]: 0 | Number of isolates [2, 18]: 0 | Number of isolates [2, 19]: 2 | impact of lung surfactant on MIC (P. aeruginosa ATCC 27853; 10% Survanta vs none): not impacted | MIC P. aeruginosa ATCC 27853 (P. aeruginosa ATCC 27853; ATCC 27853): 0.5 µg/mL (≈ 0.431 µM) | MIC, No Survanta (P. aeruginosa ATCC 27853; ATCC 27853): 0.5 µg/mL (≈ 0.431 µM) | MIC P. aeruginosa FADDI-PA025 ([3]; FADDI-PA025): 0.5 µg/mL (≈ 0.431 µM) | MIC P. aeruginosa FADDI-PA038 [4]: 0.5 µg/mL (≈ 0.431 µM) | MIC K. pneumoniae FADDI-KP032 [5]: <0.125 µg/mL | MIC K. pneumoniae FADDI-KP065 [6]: <0.125 µg/mL | logFC, differential gene expression for all genes (HK-2 cells; Geneid ENSG00000223972): -0.04793 | logFC, differential gene expression for all genes (HK-2 cells; Geneid ENSG00000227232): -0.06475 | logFC, differential gene expression for all genes (HK-2 cells; Geneid ENSG00000233750): -1.555 | logFC, differential gene expression for all genes (HK-2 cells; Geneid ENSG00000278267): 0.04711 | log2FC (HK-2 cells; gene ENSG00000017483 SLC38A5): -0.03439 | log2FC (HK-2 cells; gene ENSG00000023445 BIRC3): -0.1649 | log2FC (HK-2 cells; gene ENSG00000056558 TRAF1): 0.4036 | log2FC (HK-2 cells; gene ENSG00000066468 FGFR2): -0.6638 | num.of.degs (HK-2 cells): 70 | viability at 24 h (in vitro; Rep1): 96.4% | viability at 24 h (in vitro; Rep2): 95.4% | viability at 24 h (in vitro; Rep4): 95.1% | effect on cell viability (wild-type HK-2 cells): no effect on cell viability

Polymyxin B [reference compound]
MTD, single replicate (Swiss mice): 7 mg/kg and 5 mg/kg and 4.6 mg/kg | Number of isolates ([1]; isolates with MIC 0.05 µg/mL): 0 | Number of isolates ([1]; isolates with MIC 0.125 µg/mL): 0 | Number of isolates ([1]; isolates with MIC 0.25 µg/mL): 0 | Number of isolates ([1]; isolates with MIC 0.5 µg/mL): 0 | Number of isolates ([1]; isolates with MIC 1 µg/mL): 77 | Number of isolates ([1]; isolates with MIC 2 µg/mL): 76 | Number of isolates ([1]; isolates with MIC 4 µg/mL): 2 | Number of isolates ([1]; isolates with MIC 8 µg/mL): 2 | Number of isolates ([1]; isolates with MIC 16 µg/mL): 6 | Number of isolates ([1]; isolates with MIC 32 µg/mL): 3 | Number of isolates ([1]; isolates with MIC 64 µg/mL): 6 | Number of isolates ([1]; isolates with MIC >64 µg/mL): 5 | MIC50 ([2]; P. aeruginosa n = 213): 1 µg/mL | MIC90 ([2]; P. aeruginosa n = 213): 2 µg/mL | Number of isolates [2, 8]: 0 | Number of isolates [2, 9]: 0 | Number of isolates [2, 10]: 1 | Number of isolates [2, 11]: 9 | Number of isolates [2, 12]: 99 | Number of isolates [2, 13]: 95 | Number of isolates [2, 14]: 7 | Number of isolates [2, 15]: 0 | Number of isolates [2, 16]: 2 | Number of isolates [2, 17]: 0 | Number of isolates [2, 18]: 0 | Number of isolates [2, 19]: 0 | MIC P. aeruginosa ATCC 27853 (P. aeruginosa ATCC 27853): 0.5 µg/mL | loss of antibacterial activity due to binding to lung surfactant (P. aeruginosa ATCC 27853; 10% Survanta): 87.5% | increase of MIC in the presence of lung surfactant (P. aeruginosa ATCC 27853; 10% Survanta vs none): 8 fold | MIC, 10% Survanta (P. aeruginosa ATCC 27853; P. aeruginosa ATCC 27853, 10% Survanta): 8 µg/mL | MIC, No Survanta (P. aeruginosa ATCC 27853; P. aeruginosa ATCC 27853, no surfactant): 1 µg/mL | MIC P. aeruginosa FADDI-PA025 ([3]; MDR clinical isolate): 2 µg/mL | MIC P. aeruginosa FADDI-PA038 [4]: 0.5 µg/mL | MIC P. aeruginosa FADDI-PA038 ([4]; listed as PMB): 1 µg/mL | MIC K. pneumoniae FADDI-KP032 [5]: 0.5 µg/mL | MIC K. pneumoniae FADDI-KP065 [6]: 0.25 µg/mL | logFC, differential gene expression for all genes (HK-2 cells; Geneid ENSG00000223972): 0.4637 | logFC, differential gene expression for all genes (HK-2 cells; Geneid ENSG00000227232): -0.07236 | logFC, differential gene expression for all genes (HK-2 cells; Geneid ENSG00000233750): -0.3869 | logFC, differential gene expression for all genes (HK-2 cells; Geneid ENSG00000278267): -0.4937 | log2FC (HK-2 cells; gene ENSG00000017483 SLC38A5): 0.7953 | log2FC (HK-2 cells; gene ENSG00000023445 BIRC3): -0.454 | log2FC (HK-2 cells; gene ENSG00000056558 TRAF1): 0.6897 | log2FC (HK-2 cells; gene ENSG00000066468 FGFR2): -1.758 | Fold Change (HK-2 cells; locus chr1 629640-630683 (ENSG00000225630 by coordinates)): 1.799 | Fold Change (HK-2 cells; locus chr1 631074-632616 (ENSG00000237973 by coordinates)): 1.271 | Fold Change (HK-2 cells; locus chr1 632757-633438 (ENSG00000229344 by coordinates)): 1.2 | num.of.degs (HK-2 cells): 1576 | Cell viability, WT, Rep1 (wild-type HK-2 cells; [20]): 28.7713 | Cell viability, WT, Rep2 (wild-type HK-2 cells; [20]): 35.2856 | Cell viability, WT, Rep4 (wild-type HK-2 cells; [20]): 31.0651
